Measured values from patent US10766866B2, “Deterrents for arthropods and marine organisms” (priority 2017, dated 2020).

Key:
[1] = target: T1, Hsα2C-AR (human α2C adrenergic receptor) (Homo sapiens, UniProt P18825); experiment: [3H]rauwolscine competition radioligand binding, membranes of clonal mammalian cell lines; conditions: 50 mM Tris pH 7.4, 25° C., 2 hr, Cheng-Prusoff
T1 construct: expressed in transfected cells
T1 sequence (P18825 1-462): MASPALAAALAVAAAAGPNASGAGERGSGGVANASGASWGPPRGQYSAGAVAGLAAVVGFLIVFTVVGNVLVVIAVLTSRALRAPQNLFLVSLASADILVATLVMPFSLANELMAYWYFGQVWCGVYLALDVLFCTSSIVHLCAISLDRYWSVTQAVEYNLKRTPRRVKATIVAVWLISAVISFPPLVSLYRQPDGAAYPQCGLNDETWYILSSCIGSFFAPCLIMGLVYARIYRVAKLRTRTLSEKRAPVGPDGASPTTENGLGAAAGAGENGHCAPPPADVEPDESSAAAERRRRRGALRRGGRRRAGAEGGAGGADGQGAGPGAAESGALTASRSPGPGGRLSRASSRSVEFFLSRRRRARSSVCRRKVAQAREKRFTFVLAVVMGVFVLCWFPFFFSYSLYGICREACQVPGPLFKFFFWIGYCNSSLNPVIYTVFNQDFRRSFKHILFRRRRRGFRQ
Text: (§1) Functional expression of cloned arthropod OctRs and human α2-ARs: The cDNAs for α-like OctRs from different arthropod species (e.g., Anopheles gambiae, Aedes aegypti, Periplaneta americana, Drosophila melanogaster, Ixodes scapularis, Balanus improvises) and for α2-AR subtypes from humans were individually subcloned into mammalian expression vectors. These plasmids, which harbor a resistance gene for the selection drug G418 and the cDNA sequence for the receptor of interest, were individually transfected into mammalian cells using a calcium phosphate precipitation method. G418 selection was then employed to generated stable clonal cell lines. Utilizing rapid filtration radioligand binding techniques, the cell surface density of receptor expression of the individual clonal cell lines was determined at equilibrium and those with similar high levels of expression were selected for further experiments. Briefly, binding conditions were 50 mM Tris binding buffer pH 7.4 at 25° C. and an ice-cold wash buffer 10 mM Tris-HCl, pH 7.4). The radioligand was [3H]rauwolscine and non-specific binding was determined in the presence of 10 μM atipamezole. Following the addition of membranes prepared from the clonal cell lines, samples were mixed and allowed 2 hr. to reach equilibrium before rapid filtration and washing through 0.3% PEI-treated GF/C filters. The radioactivity remaining on the filters was quantified by scintillation counting. Receptor density (Bmax) was back calculated knowing the specific activity of the radioligand and applying the equation for a square hyperbola model: Bmax=(Y·(KD+X))/X, where Y is [specifically bound radioligand] and X=[radio ligand concentration]. The affinity (KD) for the radioligand for each receptor was determined in separate saturation isotherm binding experiments using the same binding conditions as describe above.
(§2) Measurement of compound affinities by competition radioligand binding: Affinities (Ki) for compounds were determined by [3H]rauwolscine competition binding using the same binding conditions as described above. The Ki values were calculated from IC50 values using the Cheng-Prusoff equation.

[2] = target: T2, Hsα2A-AR (human α2A adrenergic receptor) (Homo sapiens, UniProt P08913); experiment: as above; conditions: 50 mM Tris pH 7.4, 25° C., 2 hr, Cheng-Prusoff
T2 construct: expressed in transfected cells; membranes
Text: as §1, §2

[3] = tested on: Aedes mosquito; experiment: Protection against mosquito biting and toxicity to mosquitoes; type: in vivo
[4] = target: T3, DmOctR (Drosophila octopamine receptor), cloned α-like OctR (Drosophila melanogaster, UniProt Q7JQF1); experiment: OctR activation: change in intracellular calcium (CALCIUM 6QR dye, FlexStation 3) in stably transfected mammalian cells; type: cell-based; conditions: agonist
T3 construct: Gq calcium readout
T3 sequence (Q7JQF1 1-645): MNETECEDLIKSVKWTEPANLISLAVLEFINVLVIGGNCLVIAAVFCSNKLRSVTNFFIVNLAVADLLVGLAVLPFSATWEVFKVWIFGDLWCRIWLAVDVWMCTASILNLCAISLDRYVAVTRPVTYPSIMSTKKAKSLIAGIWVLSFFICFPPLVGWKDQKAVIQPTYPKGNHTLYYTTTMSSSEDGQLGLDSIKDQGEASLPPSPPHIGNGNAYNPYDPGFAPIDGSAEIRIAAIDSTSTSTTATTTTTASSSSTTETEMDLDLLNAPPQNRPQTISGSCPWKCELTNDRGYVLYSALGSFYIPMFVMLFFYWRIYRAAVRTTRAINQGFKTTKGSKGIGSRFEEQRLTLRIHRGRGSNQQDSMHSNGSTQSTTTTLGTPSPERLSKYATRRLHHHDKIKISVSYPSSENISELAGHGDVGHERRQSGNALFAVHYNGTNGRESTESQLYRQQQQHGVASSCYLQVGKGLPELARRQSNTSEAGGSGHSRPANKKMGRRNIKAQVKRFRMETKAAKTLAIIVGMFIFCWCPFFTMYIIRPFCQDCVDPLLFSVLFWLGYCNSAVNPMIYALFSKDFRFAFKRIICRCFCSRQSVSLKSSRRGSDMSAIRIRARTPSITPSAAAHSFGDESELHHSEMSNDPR
Text: as §1
(§3) Measurement of OctR activation by measuring changes in intracellular calcium: Activation of arthropod α-like OctRs increases intracellular calcium via a Gq-coupling mechanism. This involves activation of phospholipase C leading to an increase in intracellular inositol triphosphate (IP3) which then activates IP3-gated calcium channels in the endoplasmic reticulum causing a transient rise in intracellular calcium. These changes in intracellular calcium upon OctR activation were measured by loading cells with intracellular calcium sensitive dye CALCIUM 6QR and reading the change in calcium-induced fluorescent signal over time on a FlexStation 3 microplate reader.

[5] = tested on: Balanus OctR (BiOctR); experiment: OctR activation, change in intracellular calcium; type: cell-based, Balanus improvises; conditions: Balanus barnacle OctR over Homo sapien α2-AR subtypes
Text: as §1, with “Briefly, binding conditions were 50 mM Tris binding buffer pH 7.4 at 25° C. and an ice-cold wash buffer 10 mM Tris-HCl, pH 7.4).” left out, “Following the addition of membranes prepared from the clonal cell lines, samples were mixed and allowed 2 hr. to reach equilibrium before rapid filtration and washing through 0.3% PEI-treated GF/C filters.” left out, “The affinity (KD) for the radioligand for each receptor was determined in separate saturation isotherm binding experiments using the same binding conditions as describe above.” left out

[6] = Volatility; type: physicochemical
[7] = tested on: AeOctR (Aedes octopamine receptor), cloned α-like OctR; experiment: OctR activation: change in intracellular calcium (CALCIUM 6QR dye, FlexStation 3) in stably transfected mammalian cells; type: cell-based, Aedes aegypti; conditions: agonist
Text: as §1, §3

T2 sequence (P08913 whole entry): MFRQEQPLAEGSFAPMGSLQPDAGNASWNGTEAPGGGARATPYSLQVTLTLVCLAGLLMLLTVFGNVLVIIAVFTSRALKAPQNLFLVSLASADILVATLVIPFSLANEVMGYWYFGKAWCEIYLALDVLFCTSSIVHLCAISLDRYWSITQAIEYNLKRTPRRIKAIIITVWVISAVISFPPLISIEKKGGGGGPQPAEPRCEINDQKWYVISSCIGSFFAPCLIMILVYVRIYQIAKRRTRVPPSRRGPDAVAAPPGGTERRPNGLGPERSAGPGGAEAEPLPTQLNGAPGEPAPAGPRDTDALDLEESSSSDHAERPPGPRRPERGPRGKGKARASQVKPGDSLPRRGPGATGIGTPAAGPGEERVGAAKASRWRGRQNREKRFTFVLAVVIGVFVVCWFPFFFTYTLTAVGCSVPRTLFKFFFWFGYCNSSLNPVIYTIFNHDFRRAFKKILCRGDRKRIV

C=C(c1cnc[nH]1)c1cccc(C)c1C [AZ0027]
Ki [1]: 0.231 ± 0.046 µM
Ki [2]: 0.109 ± 0.016 µM
protection against mosquito biting ([3]; Aedes mosquito): protects against Aedes mosquito biting
toxicity to mosquitoes ([3]; DEET: at the lowest concentration that produces maximal protection against biting (LC50)): non-toxic to mosquitoes
potency relative to DEET ([3]; protection against mosquito biting): over 500 fold
EC50 [4]: 0.0087 ± 0.0027 µM
selectivity Ki(Hsα2-AR)/EC50(OctR) [5]: highly selective
volatility [6]: low volatility
EC50 [7]: 0.012 ± 0.0032 µM
